Laboratory results reported in publication PMC3791449, “Mechanism of amyloid β−protein dimerization determined using single−molecule AFM force spectroscopy” (Scientific Reports, 2013).
Entries after “also recorded” stand apart in the source; their conditions may differ. Where two headings read alike, the source gives them in different places.

Key:
Aβ peptides = conditions: cited from earlier work
Description: Aberrant folding (misfolding) and aggregation of amyloid proteins are pathological hallmarks of a large class of neurodegenerative diseases, including Alzheimer's disease (AD) (reviewed in[1][2]). In AD, amyloid precursor proteins are sequentially cleaved by β−secretase and γ−secretase, producing the amyloid β−protein (Aβ)[3]. Aβ peptides contain several alloforms with varying sequences of amino acids, dependent on the cleavage sites of γ−secretase. […] Additional C−terminal modi ... || It is important to compare our data with the aggregation studies of similar Aβ peptide samples.

Aβ42 dimers = conditions: cited from earlier work
Description: We have developed a single−molecule atomic force microscopy (SMFS) approach enabling us to probe and characterize the interactions of the peptides and proteins in transient misfolded conformations. In this approach, the protein is end−immobilized on the AFM tip and substrate, allowing us to measure the interprotein interactions at the single−molecule level. The dynamics force spectroscopy (DFS) approach has been quite informative with respect to the lifetimes of transiently formed misfolded dimers (reviewed in[16]).

[1] = cited from earlier work
Description: Aberrant folding (misfolding) and aggregation of amyloid proteins are pathological hallmarks of a large class of neurodegenerative diseases, including Alzheimer's disease (AD) (reviewed in[1][2]). In AD, amyloid precursor proteins are sequentially cleaved by β−secretase and γ−secretase, producing the amyloid β−protein (Aβ)[3]. Aβ peptides contain several alloforms with varying sequences of amino acids, dependent on the cleavage sites of γ−secretase.

misfolded Aβ dimers = assay: Contour length analysis of interacting segments within Aβ dimers; format: binding, human; conditions: contour length profiles, Fig. 5
Description: We used the contour length measurements to identify segments of the peptides involved in dimer formation. The measured contour length is comprised of the length of the flexible tethers used for peptide immobilization and the length of the segment of the peptide from the anchoring point to the rupture position. The latter, according to the schematic in Fig. 1, was obtained by subtracting the lengths of all linkers from the measured contour lengths.
Probing interactions of Aβ peptides within a dimer by SMFS provides a pattern of peptide interactions within the dimers. According to the immobilization procedure, the peptide is covalently bound at its N−terminal cysteine. The experimentally measured contour length consists of two major components, the lengths of the flexible tethers used for peptide immobilization and the length of the peptide segment between the N−terminus and the segment of the peptide involved in interpeptide interactions. Therefore, the position of the peak on the force−distance curve is defined by the peptide length between the N−terminus and the interacting segment. […] The closer the interacting segment is to the N−terminus, the shorter the contour length will be when measured by AFM. […] The contour length of PEG 3400 was estimated to be 22.0 ± 0.9 nm[28]. Lengths of both aminopropyl silatrane (APS) and MAS were ~ 2.5 nm[13]. Therefore, the total length of all linkers was 24.5 ± 0.9 nm. In addition, the distance between N−termini of two peptides was estimated to be 1.0 nm.
All cysteinyl−Aβ peptides were synthesized using 9−fluorenylmethoxycarbonyl (FMOC) chemistry and purified by reverse phase high performance liquid chromatography (RP−HPLC). The identity and purity (usually > 97%) of the peptides were confirmed by amino acid analysis followed by mass spectrometry and RP−HPLC. Functionalization of AFM tips and mica substrates were prepared according to previously published procedures. Briefly, 20 nM Aβ monomers were immobilized on mica functionalized with aminopropyl silatrane (APS) via PEG 3400 tethers and on AFM tips through maleimide silatrane (MAS). For DFS study, the tip retraction speeds ranged from 100 nm/s to 4000 nm/s. The dwell time was set at 0.3 s when retraction speed reached 1000 nm/s and above. Force curves with rupture event were subject to WLC analysis, as shown below. [drawing 1] Rupture force distributions were fitted with a probability density function: [drawing 2] Dynamic force spectra were fitted with Bell−Evans model[21]: [drawing 3] […] Positions of interacting segments of Aβ monomers within dimers were estimated by subtracting from the measured contour lengths the lengths of all linkers and the distance between N−termini of monomers (see Fig. 1a). […]

For “Aβ42: alloform of human amyloid β−protein with two additional C−terminal residues; cysteinyl−peptide”, the oligomerization pattern (Aβ peptides) is listed as “prefers to form a pentamer/hexamer structure (paranucleus)”, the “segments involved in dimer formation” value (Aβ42 dimers; in the absence of Cu^2+ cations) is listed as “formed dimers via the C−terminal segments” and the “segments involved in dimer formation” value (Aβ42 dimers; with Cu^2+ cations) is listed as “dimer formation involves the N−terminal segments”. The “toxicity compared with other alloforms” value [1] was “appears to be the most toxic” and the “predominant interpeptide interaction pattern in dimer” value (misfolded Aβ dimers) was “interactions within the C−terminus”.
For “[VPV]Aβ42: Aβ42 with VPV substitutions (Gly33Val−Val36Pro−Gly38Val); cysteinyl−peptide”, the “predominant interpeptide interaction pattern in dimer” value (misfolded Aβ dimers) was “interactions within the central segments”.
For “[VPV]Aβ40: Aβ40 mutant with VPV substitutions (Gly33Val−Val36Pro−Gly38Val); cysteinyl−peptide”, the “toxicity of oligomers / aggregates” value [1] is given as “elevated neurotoxicity” and the “predominant interpeptide interaction pattern in dimer” value (misfolded Aβ dimers) is given as “increased interactions between the central and C−terminal segments”.
For “Aβ40: alloform of human amyloid β−protein; cysteinyl−Aβ peptide, Cys residue placed at the N−terminus”, the aggregation properties (Aβ peptides) is given as “similar”, the oligomerization pattern (Aβ peptides) is given as “rapid equilibrium with coexisting monomers, dimers, trimers, and tetramers” and the “predominant interpeptide interaction pattern in dimer” value (misfolded Aβ dimers) is given as “primary interactions that occur via the N−termini; also recorded: predominate contribution of N−terminal interactions”.
